Measurements: patent publication US11236086B2, “Substituted pyrrolopyridines as inhibitors of activin receptor-like kinase” (BLUEPRINT MEDICINES CORPORATION, priority 2017, dated 2022)

These compounds were tested against T1, ALK2R206H (mutant ALK2, N-terminally tagged with GST) (Homo sapiens, UniProt Q04771, R206H) (assay: ALK binding assay (LANTHASCREEN TR-FRET competitive binding, displacement of Kinase Tracer 178)). Settings: read-out: Binding Assay (IC50 class).
T1 construct: purchased Carna Bioscience or ThermoFisher 09-148 or PV6232
T1 sequence (Q04771 21-509 R206H): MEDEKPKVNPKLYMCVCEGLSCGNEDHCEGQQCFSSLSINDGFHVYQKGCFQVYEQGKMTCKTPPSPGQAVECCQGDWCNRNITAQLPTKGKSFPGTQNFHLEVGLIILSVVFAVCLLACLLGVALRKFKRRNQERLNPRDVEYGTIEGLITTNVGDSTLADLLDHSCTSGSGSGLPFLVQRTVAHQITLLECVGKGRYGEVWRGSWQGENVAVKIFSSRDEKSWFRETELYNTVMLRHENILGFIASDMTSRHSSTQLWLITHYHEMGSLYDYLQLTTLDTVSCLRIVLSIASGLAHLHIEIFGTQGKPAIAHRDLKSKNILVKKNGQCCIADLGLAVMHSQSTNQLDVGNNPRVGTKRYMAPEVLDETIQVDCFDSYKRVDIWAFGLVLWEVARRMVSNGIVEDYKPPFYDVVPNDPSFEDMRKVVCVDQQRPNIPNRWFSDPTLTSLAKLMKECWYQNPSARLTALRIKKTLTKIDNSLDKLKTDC
Protocol: Example 10 ALK Binding Assays
Binding assays were conducted using the LANTHASCREEN® technology (ThermoFisher Scientific). LANTHASCREEN® is a competitive binding, displacement assay where the assumed steady state occupancy of the binding site is measured using a time-resolved, fluorescence energy transfer (TR-FRET) readout between a fluorescent tracer and Europium (Eu)-tagged antibody specific for the kinase or expression tag (e.g., GST) of interest. Displacement of the tracer by a compound of the disclosure reduces, and is directly proportional to, the TR-FRET between the tracer and the antibody. Tracer was used at a concentration equal to or near to its Kd for the kinase. The Eu-tagged antibody was typically used in excess to ensure sampling of all competent protein capable of binding the tracer.
For these assays, a mutant ALK2 was used that was N-terminally tagged with GST (ALK2R206H Carna Bioscience (09-148) or ALK2R206H ThermoFisher (PV6232)); a Eu-tagged anti-GST antibody (ThermoFisher) and Kinase Tracer 178 (ThermoFisher).
In all cases, the kinase (2-5 nM) was mixed with Eu-tagged antibody (4-10 nM) mix and tracer (50 nM) were incubated with test compound titrations prepared in 100% DMSO (1% DMSO final) for 30 minutes at room temperature. All reagents and compounds were dissolved in Kinase Buffer A (ThermoFisher) to achieve the final concentration. The plates were read on a PerkinElmer EnVision® multilabel plate reader or a BioTek Synergy Neo plate reader, and the assay signal was represented as a ratio of the TR-FRET emission (λex 330 nm, λ^em […] and λ^em 665 nm). This readout was normalized to 0% and 100% inhibited control wells, plotted against inhibitor concentration, and fitted to a 4-parameter log dose response curve.
The results of this assay are shown in Table 3 in the column labelled “Binding Assay” wherein “A” represents an IC50 of less than or equal to 10 nM; “B” represents an IC50 of greater than 10 nM and less than or equal to 50 nM; and “C” represents an IC50 of greater than 50 nM. Blank values in the table indicate that the particular compound was not tested in this assay.

Compound | IC50
Cn1cc(-c2cc3c(N4CCN(C(=O)OC5COC5)CC4)ccnc3[nH]2)c(C#N)n1 [Compound 209] | ≤ 10 nM
Cn1cc(C#N)c(-c2cc3c(N4CCN(C(=O)OC5COC5)CC4)ccnc3[nH]2)n1 [Compound 211] | > 50 nM
Cc1nc(-c2[nH]c3nccc(N4CCN(C(=O)OC5COC5)CC4)c3c2C#N)co1 [Compound 216] | ≤ 10 nM
Cc1ncc(-c2[nH]c3nccc(N4CCN(C(=O)OC5COC5)CC4)c3c2C#N)o1 [Compound 217] | ≤ 10 nM
CC(C)(O)Cn1cc(-c2cc3c(N4CCN(C(=O)C5CC5)CC4)ccnc3[nH]2)cn1 [Compound 222] | ≤ 10 nM
Cn1cc(-c2cc3c(N4CCN(C(=O)[C@H]5CC[C@@H](O)CC5)CC4)ccnc3[nH]2)cn1 [Compound 223] | 10 to 50 nM
CCc1ccc(-c2cc3c(N4CCN(C(=O)C5CC5)CC4)ccnc3[nH]2)c(Cl)c1 [Compound 226] | 10 to 50 nM
N#Cc1ncc(-c2cc3c(N4CCN(C(=O)OC5COC5)CC4)ccnc3[nH]2)s1 [Compound 229] | ≤ 10 nM
N#Cc1csc(-c2cc3c(N4CCN(C(=O)OC5COC5)CC4)ccnc3[nH]2)n1 [Compound 230] | ≤ 10 nM
CCc1c(-c2cc3c(N4CCN(C(=O)OC5COC5)CC4)ccnc3[nH]2)cnn1C [Compound 235] | ≤ 10 nM
Cn1cc(-c2cc3c(N4CCN(C(=O)OCC5(C)COC5)CC4)ccnc3[nH]2)cn1 [Compound 236] | ≤ 10 nM
CCc1c(-c2cnn(C)c2)[nH]c2nccc(N3CCN(C(=O)OC4COC4)CC3)c12 [Compound 237] | ≤ 10 nM
Cn1cc(-c2cc3c(N4CCN(C(=O)OCC5CCCO5)CC4)ccnc3[nH]2)cn1 (centres unmarked) [Compound 238] | ≤ 10 nM
CC(C)c1[nH]ncc1-c1cc2c(N3CCN(C(=O)OC4COC4)CC3)ccnc2[nH]1 [Compound 239] | > 50 nM
Cn1cc(-c2cc3c(N4CCN(C(=O)OCCC(C)(C)C)CC4)ccnc3[nH]2)cn1 [Compound 240] | 10 to 50 nM
CCOCC(C)OC(=O)N1CCN(c2ccnc3[nH]c(-c4cnn(C)c4)cc23)CC1 (centres unmarked) [Compound 246] | ≤ 10 nM
CC(C)OCCOC(=O)N1CCN(c2ccnc3[nH]c(-c4cnn(C)c4)cc23)CC1 [Compound 247] | ≤ 10 nM
O=C(C1CC1)N1CCN(c2ccnc3[nH]c(-c4ccc(C(F)(F)F)cc4)cc23)CC1 [Compound 253] | 10 to 50 nM
Cc1nc(-c2cc3c(N4CCN(C(=O)OC5CSC5)CC4)ccnc3[nH]2)cs1 [Compound 261] | ≤ 10 nM
Cn1cc(-c2[nH]c3nccc(N4CCN(C(=O)OC5COC5)CC4)c3c2C2CC2)cn1 [Compound 293] | ≤ 10 nM
Cn1cc(-c2cc3c(N4CCN(C(=O)OCC5CCCCO5)CC4)ccnc3[nH]2)cn1 (centres unmarked) [Compound 306] | ≤ 10 nM
CCOc1ccc(-c2cc3c(N4CCN(C(=O)C5CC5)CC4)ccnc3[nH]2)c(Cl)c1 [Compound 309] | > 50 nM
Cn1cc(-c2cc3c(N4CCN(C(=O)OCCOC(C)(C)C)CC4)ccnc3[nH]2)cn1 [Compound 314] | ≤ 10 nM
Cc1nc(-c2[nH]c3nccc(N4CCN(C(=O)OC5COC5)CC4)c3c2C)sc1C [Compound 318] | ≤ 10 nM
O=C(C1CC1)N1CCN(c2ccnc3[nH]c(-c4ccc(C5CCCCC5)cc4)cc23)CC1 [Compound 319] | 10 to 50 nM
Cc1nc(-c2cc3c(N4CCN(C(=O)O[C@H]5CCC5(F)F)CC4)ccnc3[nH]2)cn1C [Compound 327] | ≤ 10 nM
Cn1cc(-c2cc3c(N4CCN(C(=O)OCCS(C)(=O)=O)CC4)ccnc3[nH]2)cn1 [Compound 338] | 10 to 50 nM

Compound | IC50
CCOC(=O)N1CCN(c2ccnc3[nH]c(-c4cnn(C)c4)c(S(C)(=O)=O)c23)CC1 [Compound 339] | 10 to 50 nM
COc1cnc(-c2cc3c(N4CCN(C(=O)OC5COC5)CC4)ccnc3[nH]2)c(C#N)c1 [Compound 346] | ≤ 10 nM
CC(=O)Nc1ccc(-c2cc3c(N4CCN(C(=O)OC5COC5)CC4)ccnc3[nH]2)nc1 [Compound 353] | 10 to 50 nM
Cc1nc(-c2[nH]c3nccc(N4CCN(C(=O)OC5COC5)CC4)c3c2C#N)sc1C [Compound 360] | ≤ 10 nM
O=C(C1CC1)N1CCN(c2ccnc3[nH]c(-c4ccc(Oc5ccccc5)cc4)cc23)CC1 [Compound 361] | 10 to 50 nM
CC(C)Oc1ccc(-c2cc3c(N4CCN(C(=O)C5CC5)CC4)ccnc3[nH]2)c(Cl)c1 [Compound 364] | 10 to 50 nM
CC(C)(C)c1cnc(-c2cc3c(N4CCN(C(=O)OC5COC5)CC4)ccnc3[nH]2)s1 [Compound 373] | 10 to 50 nM
CC(C)(O)c1csc(-c2cc3c(N4CCN(C(=O)OC5COC5)CC4)ccnc3[nH]2)n1 [Compound 379] | ≤ 10 nM
CCS(=O)(=O)CCOC(=O)N1CCN(c2ccnc3[nH]c(-c4cnn(C)c4)cc23)CC1 [Compound 384] | 10 to 50 nM
Cc1nc(-c2[nH]c3nccc(N4CCN(C(=O)OC5COC5)CC4)c3c2Cl)sc1C [Compound 391] | ≤ 10 nM
O=C(C1CC1)N1CCN(c2ccnc3[nH]c(-c4ccc(C(F)(F)F)cc4Cl)cc23)CC1 [Compound 393] | > 50 nM
Cn1cnc(-c2cc3c(N4CCN(C(=O)O[C@@H]5CC(F)(F)C5(F)F)CC4)ccnc3[nH]2)c1 [Compound 400] | ≤ 10 nM
Cn1cnc(-c2cc3c(N4CCN(C(=O)O[C@H]5CC(F)(F)C5(F)F)CC4)ccnc3[nH]2)c1 [Compound 402] | ≤ 10 nM
CCC(=O)c1c(-c2cn(C)c(C)n2)[nH]c2nccc(N3CCN(C(=O)OC4COC4)CC3)c12 [Compound 404] | 10 to 50 nM
Cn1cc(-c2cc3c(N4CCN(C(=O)OCCOC5CCCCC5)CC4)ccnc3[nH]2)cn1 [Compound 405] | ≤ 10 nM
O=C(C1CC1)N1CCN(c2ccnc3[nH]c(-c4ccc(OCc5ccccc5)cc4)cc23)CC1 [Compound 406] | 10 to 50 nM
O=C(OC1COC1)N1CCN(c2ccnc3[nH]c(-c4ncc(C(F)(F)F)s4)cc23)CC1 [Compound 409] | ≤ 10 nM
O=C(OC1COC1)N1CCN(c2ccnc3[nH]c(-c4nc(C(F)(F)F)cs4)cc23)CC1 [Compound 410, oxetan-3-yl 4-(2-(4-(trifluoromethyl)thiazol-2-yl)-1H-pyrrolo[2,3-b]pyridin-4-yl)piperazine-1-carboxylate] | 10 to 50 nM
CCOC(=O)N1CCN(c2ccnc3[nH]c(-c4ccc(C5(OC)CCOCC5)cn4)cc23)CC1 [Compound 430] | ≤ 10 nM
O=C(OC1COC1)N1CCN(c2ccnc3[nH]c(-c4nc5c(s4)COCC5)c(Cl)c23)CC1 [Compound 443] | ≤ 10 nM
O=C(OC1COC1)N1CCN(c2ccnc3[nH]c(-c4csc(C(=O)N5CCCC5)n4)cc23)CC1 [Compound 448] | ≤ 10 nM
CCN1CCN(c2ccc(-c3cc4c(N5CCN(C(=O)C6CC6)CC5)ccnc4[nH]3)c(OC)c2)CC1 [Compound 454] | 10 to 50 nM
COC1(c2ccc(-c3cc4c(N5CCN(C(=O)OC6COC6)CC5)ccnc4[nH]3)nc2)CCOCC1 [Compound 457] | ≤ 10 nM
CC(C)(C)OC(=O)NC1(c2ccc(-c3cc4c(N5CCN(C(=O)C6CC6)CC5)ccnc4[nH]3)cc2)CC1 [Compound 463] | ≤ 10 nM
N#Cc1cc(C2(O)CCOCC2)ccc1-c1cc2c(N3CCN(C(=O)OC4COC4)CC3)ccnc2[nH]1 [Compound 465] | ≤ 10 nM
CCN1CCN(c2ccc(-c3cc4c(N5CCN(C(=O)C6CC6)CC5)ccnc4[nH]3)c3ncccc23)CC1 [Compound 471] | ≤ 10 nM
